# pIC50: −log10 of the molar value.
# Tested on: HeLa
# Assay: Cytotoxicity against human HeLa cells
# Type: functional, cell-based
row,Structure (SMILES),pIC50
1,CCCCCCCCCCCCCCCCCC(OC(=O)[C@H](CCCCN(O)C=O)NC(=O)[C@H]1N=C(c2ccccc2O)O[C@@H]1C)C(C)C(=O)N[C@@H]1CCCCN(O)C1=O (stereo partly drawn),4.78
2,CCCCCCCCCCCCC/C=C\CCC(OC(=O)[C@H](CCCCN(O)C=O)NC(=O)[C@H]1N=C(c2ccccc2O)O[C@@H]1C)C(C)C(=O)N[C@@H]1CCCCN(O)C1=O (stereo partly drawn),4.78
3,CCCCCCCCCCCCCCCC(OC(=O)[C@H](CCCCN(O)C=O)NC(=O)[C@H]1N=C(c2ccccc2O)O[C@@H]1C)C(C)C(=O)N[C@@H]1CCCCN(O)C1=O (stereo partly drawn),4.78
